Usually IC50 stands for the point on the concentration scale where inhibition reaches its midpoint.

SMILES strings stand for the structures.

For 49 compounds, IC50 results are on record in patent US10052330B2, “Substituted pyrido[3,4-b]pyrazines as Syk inhibitors” (HUTCHISON MEDIPHARMA LIMITED, priority 2011, dated 2018).

In the test the target is Syk kinase (Homo sapiens, UniProt P43405). Kind of test: Syk kinase enzymatic assay (Kit-Tyr 2 Peptide). The class given is biochemical. As to conditions: 8 concentrations, 1 μM down to 0.0003 μM; upper bound of each range is 'less than'; read-out: IC50: Enzymatic Activity (Syk kinase).
For the compound `CNC(=O)COc1ccc(-c2cc3nccnc3c(NCC3CCCNC3)n2)cc1` (stereo not shown) [Compound 48], the IC50 fell in the range of 1 to 100 nM. `CC(C)(O)COc1ccc(-c2cc3nccnc3c(NC[C@@H]3CNCCO3)n2)cc1` [Compound 268]: the 50% inhibitory concentration (IC50) is 100 to 1000 nM. In the case of `COc1ccc(-c2cc3nccnc3c(NC[C@@H]3CN(C(=O)C(F)F)CCO3)n2)cc1OC` [Compound 454], the concentration for half-maximal inhibition (IC50) is 100 to 1000 nM.

`Fc1ccc(-c2cc3nccnc3c(NCC3CCCNC3)n2)cc1Cl` (stereo not shown) [Compound 20]: the IC50 lay within 100 to 1000 nM. `CC(CO)Nc1nc(-c2ccc(N3CCOCC3)cc2)cc2nccnc12` (stereo not shown) [Compound 358]: the IC50 fell in the range of 100 to 1000 nM. Next, `CNc1ccc(-c2cc3nccnc3c(NC[C@@H]3CN(C(=O)C(F)F)CCO3)n2)cc1` [Compound 453]: 100 to 1000 nM. In the case of `COCCn1cc(-c2cc3nccnc3c(NCC3(F)CCCNC3)n2)cn1` (stereo not shown) [Compound 288] it was 100 to 1000 nM.

For the compound `O=C(C(F)F)N1CCC(F)(F)C(CNc2nc(-c3cnn(C4CCOCC4)c3)cc3nccnc23)C1` (stereo not shown) [Compound 325], the 50% inhibitory concentration (IC50) lay in the range of 100 to 1000 nM. In the case of `CN(CCO)c1ccc(-c2cc3nccnc3c(NC[C@@H]3CNCCO3)n2)cc1` [Compound 472, (S)-2-(methyl(4-(5-(morpholin-2-ylmethylamino)pyrido[4,3-b]pyrazin-7-yl)phenyl)amino)ethanol] it was 100 to 1000 nM; in that of `OC1CCN(c2ccc(-c3cc4nccnc4c(NC[C@@H]4CNCCO4)n3)cn2)C1` (stereo partly shown) [Compound 257], 100 to 1000 nM.

As for `c1cnc2c(N3CCC4CNCC43)nc(-c3ccc(N4CCOCC4)cc3)cc2n1` (stereo not shown) [Compound 8], the IC50 is 100 to 1000 nM. Regarding `Cn1cc(-c2ccc(-c3cc4nccnc4c(NC[C@@H]4CNCCO4)n3)cc2)cn1` [Compound 249], the IC50 fell in the range of 100 to 1000 nM.

For the compound `CNc1ccc(-c2cc3nccnc3c(NCC3CNCC(F)(F)C3)n2)cc1` (stereo not shown) [Compound 204], the IC50 is 100 to 1000 nM. `c1cnc2c(NC[C@H]3CNCCO3)nc(-c3ccc(N4CCCC4)nc3)cc2n1` [Compound 101]: the half-maximal inhibitory concentration (IC50) is 100 to 1000 nM. Next, `CC(=O)N1CCN(c2ccc(-c3cc4nccnc4c(NC[C@@H]4CN(S(C)(=O)=O)CCO4)n3)cc2)CC1` [Compound 491]: 100 to 1000 nM; `COc1cc(-c2cc3nccnc3c(NCC3CCCNC3)n2)cc(OC)c1OC` (stereo not shown) [Compound 11]: 100 to 1000 nM; `O=C(C(F)F)N1CCO[C@H](CNc2nc(-c3ccc(N4CCOCC4)c(Cl)c3)cc3nccnc23)C1` [Compound 452]: 100 to 1000 nM. For `CCNC(=O)c1ccc(-c2cc3nccnc3c(NCC3CCCNC3)n2)cc1` (stereo not shown) [Compound 66], the IC50 is 100 to 1000 nM. Regarding `CS(=O)(=O)N1CCC(c2ccc(-c3cc4nccnc4c(NCC(O)CN)n3)cc2)CC1` (stereo not shown) [Compound 509], the IC50 was in the range of 100 to 1000 nM. Regarding `FC1(F)CCNC[C@@H]1CNc1nc(-c2ccc(N3CCOCC3)nc2)cc2nccnc12` [Compound 375, (R)—N-((4,4-difluoropiperidin-3-yl)methyl)-7-(6-morpholinopyridin-3-yl)pyrido[4,3-b]pyrazin-5-amine], the IC50 fell in the range of 100 to 1000 nM.

Consider `O=C(O)c1ccccc1Nc1nc(-c2ccc(N3CCOCC3)cc2)cc2nccnc12` [Compound 361], for which the IC50 is 100 to 1000 nM. With `CN1CCN(c2ccc(-c3cc4nccnc4c(NCC4CNCCS4(=O)=O)n3)cc2)CC1` (stereo not shown) [Compound 484], the IC50 fell in the range of 100 to 1000 nM. `CNc1nc(-c2ccc(N3CCOCC3)cc2)cc2nccnc12` [Compound 357]: the IC50 was in the range of 100 to 1000 nM. On to `CS(=O)(=O)N1CCN(c2ccc(-c3cc4nccnc4c(NC[C@@H]4CN(S(C)(=O)=O)CCO4)n3)cc2)CC1` [Compound 492], for which the IC50 lay in the range of 100 to 1000 nM.

As to `CC(C)Nc1nc(-c2ccc(N3CCOCC3)cc2)cc2nccnc12` [Compound 195], the IC50 fell in the range of 100 to 1000 nM. For `OCCn1cc(-c2cc3nccnc3c(NC[C@H]3CCCNC3)n2)cn1` [Compound 34], the IC50 lay in the range of 1 to 100 nM. Turning to `NC(=O)N1CCC(CNc2nc(-c3ccc(N4CCOCC4)cc3)cc3nccnc23)CC1` [Compound 350], the IC50 fell in the range of 100 to 1000 nM. For `CS(=O)(=O)c1ccc(-c2cc3nccnc3c(NC[C@H]3CNCCC3(F)F)n2)cc1` [Compound 391, (R)—N-((4,4-difluoropiperidin-3-yl)methyl)-7-(4-(methylsulfonyl)phenyl)pyrido[4,3-b]pyrazin-5-amine], the IC50 is 100 to 1000 nM.

As for `NC(=O)N1CCC(F)(F)C(CNc2nc(-c3cnn(C4CCOCC4)c3)cc3nccnc23)C1` (stereo not shown) [Compound 355], the IC50 is 100 to 1000 nM.

For the compound `Fc1ccc(-c2cc3nccnc3c(NC[C@@H]3CNCCO3)n2)cc1` [Compound 245], the IC50 fell in the range of 100 to 1000 nM. For the compound `CN(C)C(=O)Cc1ccc(-c2cc3nccnc3c(NC[C@@H]3CNCCO3)n2)cc1` [Compound 224], the IC50 was in the range of 100 to 1000 nM. Regarding `c1cnc2c(N3CC4CNCC4C3)nc(-c3ccc(N4CCOCC4)cc3)cc2n1` (stereo not shown) [Compound 6], the IC50 fell in the range of 100 to 1000 nM. With `COCCn1cc(-c2cc3nccnc3c(NCC3CCCNC3)n2)cn1` (stereo not shown) [Compound 72], the IC50 lay in the range of 100 to 1000 nM. Consider `FC1(CNc2nc(-c3ccc(N4CCOCC4)nc3)cc3nccnc23)CCCNC1` (single isomer, unassigned) [Compound 378], for which the IC50 is 100 to 1000 nM. On to `O=S(=O)(C1CC1)N1CCO[C@H](CNc2nc(-c3ccc(N4CCOCC4)cc3)cc3nccnc23)C1` [Compound 344], for which the half-maximal inhibitory concentration (IC50) was in the range of 100 to 1000 nM. Consider `CS(=O)(=O)CCOc1ccc(-c2cc3nccnc3c(NC[C@@H]3CNCCO3)n2)cc1` [Compound 478, (S)-7-(4-(2-(methylsulfonyl)ethoxy)phenyl)-N-(morpholin-2-ylmethyl)pyrido[4,3-b]pyrazin-5-amine], for which the IC50 is 100 to 1000 nM. Regarding `COc1ccc(-c2cc3nccnc3c(NCCCN)n2)cc1OC` [Compound 191], the IC50 is 100 to 1000 nM.

For the compound `O=C1CN(c2nc(-c3ccc(N4CCOCC4)cc3)cc3nccnc23)CCN1` [Compound 360], the IC50 is 100 to 1000 nM.

As for `CNC(=O)N1CCO[C@H](CNc2nc(-c3ccc(N4CCOCC4)cc3)cc3nccnc23)C1` [Compound 339], the IC50 lay in the range of 100 to 1000 nM. In the case of `CCC(=O)N1CCO[C@H](CNc2nc(-c3ccc(N4CCOCC4)cc3)cc3nccnc23)C1` [Compound 327], the IC50 was in the range of 100 to 1000 nM. `O=C(c1ccc(-c2cc3nccnc3c(NCC3CCCNC3)n2)cc1)N1CCOCC1` (stereo not shown) [Compound 65]: the half-inhibitory concentration (IC50) lay within 100 to 1000 nM. On to `c1cnc2c(NC[C@@H]3CNCCO3)nc(-c3ccc(OCC4CCOCC4)nc3)cc2n1` [Compound 258], for which the IC50 lay within 100 to 1000 nM.

In the case of `CS(=O)(=O)N1CCO[C@H](CNc2nc(-c3ccc(C4CCNCC4)cc3)cc3nccnc23)C1` [Compound 459], the IC50 was 1 to 100 nM. Regarding `C[C@@H]1CN(c2ccc(-c3cc4nccnc4c(NC[C@@H]4CNCCO4)n3)cn2)C[C@H](C)O1` [Compound 246], the IC50 lay within 100 to 1000 nM. As to `NS(=O)(=O)c1ccc(-c2cc3nccnc3c(NCC3CCCNC3)n2)cc1` (stereo not shown) [Compound 43], the IC50 fell in the range of 100 to 1000 nM. Regarding `CN(C)Cc1ccc(-c2cc3nccnc3c(NC[C@@H]3CNCCO3)n2)cc1` [Compound 212], the IC50 is 100 to 1000 nM. With `CNS(=O)(=O)c1ccc(-c2cc3nccnc3c(NC[C@@H]3CNCCO3)n2)cc1` [Compound 284], the 50% inhibitory concentration (IC50) lay within 100 to 1000 nM. Next, `CNc1ccc(-c2cc3nccnc3c(NC[C@@H]3CN(C(=O)C(F)F)CCO3)n2)cc1F` [Compound 457]: 100 to 1000 nM; `CNC(=O)COc1ccc(-c2cc3nccnc3c(NC[C@@H]3CN(C(=O)C(F)F)CCO3)n2)cc1` [Compound 461]: 100 to 1000 nM.
